According to PubChem BioAssay (NCI):
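Interpolation was linear, between the two tested concentrations surrounding the appropriate level; five concentrations were tested over 48 hours in 96-well plates. GI50 marks 50% less growth. TGI: total growth inhibition.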

Tests used:
Assay in all cases: inhibition of tumour cell growth, NCI panel, 48 h
OVCAR-5 ovarian = system: OVCAR-5 ovarian
CCRF-CEM leukemia = system: CCRF-CEM leukemia
SK-OV-3 ovarian = system: SK-OV-3 ovarian
IGROV1 ovarian = system: IGROV1 ovarian
ACHN renal = system: ACHN renal
SR leukemia = system: SR leukemia
HCT-15 colon = system: HCT-15 colon
NCI-H460 lung = system: NCI-H460 lung
OVCAR-8 ovarian = system: OVCAR-8 ovarian
SNB-75 CNS = system: SNB-75 CNS
HOP-62 NSCLC = system: HOP-62 NSCLC
786-0 renal = system: 786-0 renal
SK-MEL-28 melanoma = system: SK-MEL-28 melanoma
MDA-MB-435 = system: MDA-MB-435
HS 578T breast = system: HS 578T breast

Structure (SMILES)	TGI (OVCAR-5 ovarian) [µM]	TGI (CCRF-CEM leukemia) [µM]	TGI (SK-OV-3 ovarian) [µM]	TGI (IGROV1 ovarian) [µM]	TGI (ACHN renal) [µM]	TGI (SR leukemia) [µM]	TGI (HCT-15 colon) [µM]	TGI (NCI-H460 lung) [µM]	TGI (OVCAR-8 ovarian) [µM]	TGI (SNB-75 CNS) [µM]	TGI (HOP-62 NSCLC) [µM]	TGI (786-0 renal) [µM]	TGI (SK-MEL-28 melanoma) [µM]	GI50 (SR leukemia) [µM]	TGI (MDA-MB-435) [µM]	GI50 (SNB-75 CNS) [µM]	TGI (HS 578T breast) [µM]
N#CCC(=O)Nc1ccccc1O	> 100	> 100	> 100	> 100	> 100	> 100	> 100	> 100	> 100	> 100	> 100	> 100	> 100				
CN1C(=O)N(c2nc3ccccc3[nH]2)C(C)(C)C1=O		> 100	> 100	> 100	> 100	> 100	> 100		> 100	> 100	> 100	> 100	> 100				
COC(=O)C(C#N)C1NC(=O)c2ccccc21 (centres undefined)	> 100	> 100	> 100	> 100	> 100	> 100	> 100	> 100	> 100	> 100	> 100	> 100	> 100				
N[C@H]1CCN(c2c(F)cc3c(=O)c(C(=O)O)cn4c3c2Oc2c-4ccc3c2ccc2ccccc23)C1	> 100			> 48.8	> 24.4	> 100	> 51.3	2.42	> 100		> 100	> 36.6	> 100	0.283	> 39.6		
CC(C)=CCOc1ccc(-c2coc3cc4c(c(O)c3c2=O)C=CC(C)(C)O4)cc1	> 100	> 100		> 100	> 100	> 100	> 100	> 100	> 100		> 100	> 100	> 100				
C[C@]12CC[C@H](O)CC1=CC[C@@H]1[C@@H]2CC[C@]2(C)NC(=O)/C(=C\c3ccccc3)C[C@@H]12	27.9	48.5	35.5	33.8	43.1	> 100	37.8	68.9	47.6	48.5	29	52	32		37.8		
CN1N=C(c2ccccc2)c2cc(Cl)ccc2N=C1N/N=C/c1ccc(N(C)C)cc1		> 100	> 100	> 100	> 100	> 100	> 100	> 100	> 100	> 100	> 100	> 100	> 100		> 100		
O=C1c2c(O)cccc2Cc2cc(CO)cc(O)c21	15.2	> 100		20.1	12.4	12.1	11.3	8.04	12.8	5.44	11.9	11.4	27.3		15.5		
Cc1cc(C)c(C(=O)C(C)C(c2ccccc2)c2ccc(Cl)cc2)c(C)c1 (centres undefined)		> 100	> 100	> 100	> 100	> 100	> 100	> 100	> 100	> 100	> 100	> 100	> 100				
CC(O)C1OC(n2ccc(=O)[nH]c2=O)CC1n1cncn1 (centres undefined)	> 100	> 100	> 100	> 100	> 100	> 100	> 100	> 100	> 100	> 100	> 100	> 100	> 100			> 100	
Nn1c(CCCCCCCCc2n[nH]c(=S)n2N)n[nH]c1=S	> 100	> 100	> 100	> 100	> 100	> 100	> 100	> 100	> 100	> 100	> 100	> 100	> 100		> 100		
O=C(NCc1ccccc1)C1C(=O)C(=O)N(Cc2ccccc2)C1=O (centres undefined)	> 100	> 100	> 100	> 100	> 100	> 100	> 100	> 100	> 100	> 100	> 100	> 100	> 100				
C/C(=N/N)c1sc(-c2nc(C)c(/C(C)=N\N)s2)nc1C	> 100	> 76.7	> 100	> 100	> 100	36.4	> 60.8	> 100	> 100	> 100	> 100	> 100	> 100				
CC(C)(C)NC(=S)N/N=C/c1ccccn1	> 100		> 100	> 100	27		> 100	> 100	> 40.7	> 100	> 79.8	> 100	> 100		> 100		> 100
Oc1ccc(/C=N/c2nccs2)c(O)c1	> 100		> 100	> 100	> 100		> 100	> 100	> 100	> 100	> 100	> 100					> 100
C/C(=C\CC/C=C(\C)CC/C=C(\C)CCC1SC1(C)C)CC/C=C(\C)CCC1OC1(C)C (centres undefined)		> 100	> 100	> 100	> 100	> 100	> 100	> 100	> 100	> 100		> 100	> 100				
COc1ccc(/C=C/c2nc(=S)[nH][nH]2)cc1OC	> 100	> 100		> 100	> 100	> 100	> 100	> 100	> 100	> 100		> 100	> 100				

Structure (SMILES)	TGI (OVCAR-5 ovarian) [µM]	TGI (CCRF-CEM leukemia) [µM]	TGI (SK-OV-3 ovarian) [µM]	TGI (IGROV1 ovarian) [µM]	TGI (ACHN renal) [µM]	TGI (SR leukemia) [µM]	TGI (HCT-15 colon) [µM]	TGI (NCI-H460 lung) [µM]	TGI (OVCAR-8 ovarian) [µM]	TGI (SNB-75 CNS) [µM]	TGI (HOP-62 NSCLC) [µM]	TGI (786-0 renal) [µM]	TGI (SK-MEL-28 melanoma) [µM]	GI50 (SR leukemia) [µM]	TGI (MDA-MB-435) [µM]	GI50 (SNB-75 CNS) [µM]	TGI (HS 578T breast) [µM]
CC(=O)OCC1OC(n2c(O)c(N=NC(N)=S)c3ccc([N+](=O)[O-])cc32)C(OC(C)=O)C1OC(C)=O (centres undefined)	> 100	64.8	> 100	> 100	> 100	60.2	> 100	66.2	43.1	82.8	> 100	44.4	> 100				
COC(=O)/C(=N\N)C(C(=O)C(=O)Nc1nc(=S)[nH][nH]1)c1nc2ccc([N+](=O)[O-])cc2[nH]c1=O (centres undefined)	> 100	> 100	> 100	> 100	> 100	> 100	> 100	> 100	> 100	> 100	> 100	> 100	> 100				
O=C1C2C3C=C4c5ccccc5N(c5ccccc5)C4([C@@H]2C(=O)N1c1ccc(F)cc1)[C@H]1C(=O)N(c2ccc(F)cc2)C(=O)[C@@H]31 (some centres undefined)	> 100	> 100			> 100	> 100	> 100		> 100	> 100		> 100	> 100				
COc1cc2c(cc1OC)[C@H]1C(COC(=O)Nc3ccccc3)CN1CC2 (some centres undefined)	> 100	> 100	> 100	> 100	> 100	> 100	> 100	> 100	> 100	79.3	> 100	> 100	> 100				
O=C(O)CCC(NC(=O)c1ccc(CNc2nc3cc(C(F)(F)F)ccc3nc2C(=O)O)cc1)C(=O)O (centres undefined)	> 100	> 100	> 100	> 100	> 100	> 100	> 100	> 100	> 100	> 100	> 100	> 100	> 100		> 100		
COC1(C)CNCC(C)(C)NC(=O)C(C)(OC)CNCC(C)(C)NC1=O (centres undefined)	> 100	> 100	> 100	> 100	> 100		> 100	> 100	> 100	> 100	> 100	> 100	> 100				
CC1OC(CC2C=CCc3c(O)c4c(c(O)c32)C(=O)c2ccccc2C4=O)CC(NC(=O)C(F)(F)F)C1O (centres undefined)	> 100	20.7	24.6	44.6	25.1	13.5	55.9	24.1	15	5.8	19	23.2	16.1				
COC(=O)CNC(=O)CSc1nnc(COc2ccc(Cl)cc2)n1-c1ccccc1	> 100	> 100	> 100	54	55		> 100	> 100	92.9	35.5	> 100	31.4	81.3		48.4		
COc1nc2c(c(=O)[nH]1)N=C(c1ccc(Cl)cc1)CC(c1ccccc1)N2 (centres undefined)	> 100	44.9		> 100	52.3	> 100	64.6	69.3	60.9	54.9	> 100	> 100	54.1		> 100		
O=c1c2ccccc2nc(N/N=C/c2ccc(Cl)cc2)n1-c1ccccc1	> 100	> 100	> 100	> 100	> 100	> 100	> 100	> 100	> 100		> 100	> 100	> 100		> 100		
CN1CCN(Cc2ccccc2)CC1CC#N (centres undefined)	> 100	> 100	> 100	> 100	> 100	> 100	> 100	> 100	> 100	> 100	> 100	> 100	> 100		> 100		
COc1cc2cnc3c4cc(OC)c(OC(C)C)cc4ccc3c2cc1OC	> 100	> 100	> 100	> 100	> 100	> 100	> 100	> 100	> 100	> 100	> 100	> 100	> 100				
C/C=C1/C(=Cc2[nH]c(C=c3[nH]/c(=C/C4=NC(=O)C(CC)=C4C)c(C)c3CCC(=O)O)c(CCC(=O)O)c2C)NC(=O)C1C (centres undefined)	27.4	> 50	> 50	> 50	> 50	> 50	> 50	40.6	5	> 50	15.9	> 50	> 50				
CC(=O)OCC1=CC2CCC3C(C)(CCC[C@]3(C)COC(C)=O)C23CC[C@H]1C3 (some centres undefined)	> 100	93.3	> 100	> 100	> 100	76.5	> 100	> 100	> 100	> 100	> 100	> 100	> 100				
CCC(=O)CCC1=Nc2nnc(CCCCc3nnc4n3C(=O)C(CCC(=O)CC)=N4)n2C1=O	> 100	> 100	> 100	> 100	> 100		> 100	> 100	> 100	> 100	> 100	> 100	> 100				
CC12CCC(=O)[C@@]1(C)CCCC2O (some centres undefined)	> 100	> 100	> 100	> 100	> 100	> 100	> 100	> 100	> 100	> 100	> 100	> 100	> 100				> 100
CCN1C/C(=C\c2ccc(Cl)cc2)c2[nH]c(=O)c(C#N)c(-c3ccc(Cl)cc3)c2C1	> 100	> 100	> 100	> 100	> 100	> 100	> 100	> 100			> 100	> 100	> 100		> 100		
